In publication PMC8522729 (Antimicrobial Agents and Chemotherapy, 2021):
Converted amounts (≈) assume the structure as drawn. Where two headings read alike, the source gives them in different places.

Tests used:
[1] = cited from earlier work
[2] = cited from earlier work; remark: listed apart in the source
[3] = system: M. tuberculosis H37Rv; design: method as in PMID 19299584; conditions: cited from earlier work
[4] = Plasma, lung and lesion drug levels (LC-MS/MS and LCM-LC-MS/MS)
[5] = system: M. tuberculosis Kurono; design: method as in PMID 32229496; conditions: chronic ICR mouse model, cited from earlier work
[6] = system: M. tuberculosis; conditions: QD, cited from earlier work
[7] = system: M. tuberculosis Erdman; assay: MIC by broth microdilution (MABA), with and without 4% huSA (serum-shift assay); conditions: for Serum shift (fold increase): M. tuberculosis Erdman, MIC with 4% huSA vs without; for protein binding by this assay (MIC shift): indicated by 8-fold MIC shift with 4% huSA
[8] = system: M. tuberculosis Erdman-infected C3HeB/FeJ mice; assay: Efficacy in the C3HeB/FeJ mouse tuberculosis model (CFU in lungs and spleens, kill rates); assay type: in vivo; conditions: for dose at which maximal efficacy in spleens was achieved / LME (lowest dose with the maximum effect) in lungs: 8 weeks of treatment, OPC-167832 QD; for dose at which maximal efficacy in spleens was achieved: TBA-7371 BID (not yet achieved); for LME (lowest dose with the maximum effect) in lungs: TBA-7371 BID, PBTZ169 QD; for average lung CFU reduction compared to untreated controls: 5 of 7 days per week; for CFU reduction in spleen: spleens; for CFU reduction in spleen / effect on lung CFU compared to pretreatment control and untreated controls: 4 weeks of treatment, all doses; for effect on lung CFU compared to pretreatment control and untreated controls: P > 0.05
[9] = C3HeB/FeJ, mouse, in vivo
[10] = system: nonreplicating bacteria in rabbit caseum; assay: Caseum MBC assay; assay type: cell-based, Mycobacterium tuberculosis; conditions: 7 days
[11] = system: pulmonary pathology of M. tuberculosis-infected C3HeB/FeJ mice; assay: Pulmonary histopathology (pathologist scoring and LIRA); assay type: in vivo; conditions: 100 mg/kg QD, 8 weeks
[12] = system: M. tuberculosis; conditions: chronic BALB/c mouse model, cited from earlier work
[13] = system: M. tuberculosis; conditions: cited from earlier work
[14] = system: M. tuberculosis H37Rv; assay: MIC by broth microdilution (MABA), with and without 4% huSA (serum-shift assay); conditions: MIC with 4% huSA vs without
[15] = system: M. tuberculosis; design: method as in PMID 24957839, PMID 24215368, PMID 24874895; conditions: acute BALB/c mouse model; 100 mg/kg QD; cited from earlier work
[16] = C3HeB/FeJ, mouse, in vivo, 5 mg/kg
[17] = lungs, 8 weeks, all three OPC-167832 groups, TBA-7371 medium and high dose, PBTZ169 medium and high dose, P < 0.05 Dunnett

Q: Which results are given for `C[C@H]1COC2(CCN(c3nc(=O)c4cc(C(F)(F)F)cc([N+](=O)[O-])c4s3)CC2)O1` [BTZ043]?
A: plasma protein binding [1]: > 99.8%; selectivity index [2]: > 10,000; MIC [3]: 0.001 µg/mL (≈ 0.00232 µM)

Q: For `O=C1CCc2c(OC[C@]3(O)CCN(c4c(F)cc(Cl)cc4F)C[C@H]3O)ccc(F)c2N1` [OPC-167832], which “drug level in caseous core / cellular-caseum interface at plasma Cmax, fold in excess of the MIC+huSA” value ([4]; 5 mg/kg QD, 2.5 weeks) is on record?
A: Its value is “approximately 21 fold”.

Q: And the Cmax at 1 h [4, 16]?
A: The Cmax at 1 h was 35 ng/g.

Q: What about the concentration at 1 h [4, 16] of the same molecule?
A: The concentration at 1 h was 190 ng/g.

Q: What about the concentration at 24 h [4, 16] of the same molecule?
A: Its concentration at 24 h is 34 to 108 ng/g.

Q: What about the “CFU reduction in lungs versus the start of treatment” value ([5]; 5 mg/kg for 4 weeks) of the same molecule?
A: Its value is over 1.5 log10 CFU.

Q: What about the “dose showing bactericidal activity” value [5] of the same molecule?
A: The value was 0.625 mg/kg.

Q: What about the “MED99 (minimal effective dose giving 2-log reduction in lung bacterial load vs untreated)” value [6] of the same molecule?
A: The value was 5 mg/kg.

Q: And the “Serum shift (fold increase)” value [7]?
A: Its value is 8 fold.

Q: What about the “protein binding by this assay (MIC shift)” value [7] of the same molecule?
A: The value was about 88%.

Q: And the “dose at which maximal efficacy in spleens was achieved” value [8]?
A: Its value is 5 mg/kg.

Q: And the “LME (lowest dose with the maximum effect) in lungs” value (from here on “LME”) [8]?
A: Its value is 5 mg/kg.

Q: What about the “average lung CFU reduction compared to untreated controls” value (from here on “average lung CFU reduction”) ([8]; 8 weeks, 5 and 20 mg/kg QD) of the same molecule?
A: Its value is 3 log10 CFU.

Q: What about the “efficacy in lungs versus the pretreatment control group” value ([8]; lungs, 4 weeks, 20 mg/kg QD, P = 0.04 Dunnett) of the same molecule?
A: Its value is “statistically significant efficacy”.

Q: And the “lung bacterial load compared to the untreated control group” value ([8]; lungs, 4 weeks, all three dose groups (1.25, 5, 20 mg/kg QD), P = 0.002 to 0.03 Dunnett)?
A: Its value is “statistically significant reduction in lung bacterial load”.

Q: What about the “lung bacterial load compared to the untreated control group” value [8, 17] of the same molecule?
A: The value was “statistical significant reduction in the lung bacterial load”.

Q: What about the “CFU reduction in spleen” value [8] of the same molecule?
A: The value was “dose-dependent CFU reduction”.

Q: What about the “concentration in caseum (acellular) at T1, fold above the MIC+huSA” value ([9]; 1 h) of the same molecule?
A: The value was 12 fold.

Q: What about the “concentration in caseum at T1, fold in excess of the MIC+huSA” value ([9]; 1 h) of the same molecule?
A: Its value is 20 fold.

Q: What about the “plasma and lung concentration at T1, fold above the MIC+huSA” value ([9]; 1 h) of the same molecule?
A: Its value is 75-85 fold.

Q: And the MBC ([10]; Mycobacterium tuberculosis, 168 h, rabbit caseum, read-out: caseum MBC90)?
A: The MBC was 500 µg/mL (≈ 1090 µM).

Q: And the “reduction from treatment start in caseum” value ([10]; highest concentration tested (1 mg/ml), P = 0.0005)?
A: The value was 1 log.

Q: With `O=c1nc(N2CCN(CC3CCCCC3)CC2)sc2c([N+](=O)[O-])cc(C(F)(F)F)cc12` [PBTZ169, macozinone] as the molecule, how does the “Cmax in the cellular-caseum interface and caseum, fold lower than plasma or whole lung Cmax” value ([4]; 50 mg/kg QD, 2.5 weeks) read?
A: Its value is 10 fold.

Q: What about the “concentration in plasma and lungs at T1 (Cmax)” value ([4]; 50 mg/kg QD, 2.5 weeks, T1 15 min) of the same molecule?
A: Its value is “around 1 μg/ml or μg/g”.

Q: And the “type III cellular lesions, lung involvement (LIRA)” value [11]?
A: Its value is “more than 35%”.

Q: What about the “type III lesion lung involvement relative to untreated control group (LIRA)” value [11] of the same molecule?
A: The value was “more than 2 fold”.

Q: And the “MED99 (minimal effective dose giving 2-log reduction in lung bacterial load vs untreated)” value ([6]; published or reported mouse infection studies, no reference given)?
A: The value was 50 mg/kg.

Q: And the “Serum shift (fold increase)” value [7]?
A: The value was 8 fold.

Q: What about the “protein binding by this assay (MIC shift)” value [7] of the same molecule?
A: Its value is about 88%.

Q: What about the “CFU reduction in lungs versus untreated controls” value ([12]; after 4 weeks of treatment) of the same molecule?
A: The value was 1 log10 CFU.

Q: What about the “additional CFU reduction in lungs versus BTZ043” value [12] of the same molecule?
A: Its value is 0.5 log10 CFU.

Q: And the “additional CFU reduction in spleens versus BTZ043” value [12]?
A: The value was 1 log10 CFU.

Q: And the “LME” value [8]?
A: Its value is 50 mg/kg.

Q: And the “average lung CFU reduction” value ([8]; 8 weeks, 50 and 100 mg/kg QD)?
A: The value was 1.5 log10 CFU.

Q: What about the “effect on lung CFU compared to pretreatment control and untreated controls” value ([8]; lungs) of the same molecule?
A: Its value is “not statistically significant”.

Q: What about the “lung bacterial load compared to the untreated control group” value [8, 17] of the same molecule?
A: Its value is “statistical significant reduction in the lung bacterial load”.

Q: What about the “CFU reduction in spleen” value [8] of the same molecule?
A: The value was “no statistically significant CFU reduction”.

Q: And the “MIC fold lower versus BTZ043” value [13]?
A: Its value is 3 fold.

Q: And the selectivity index [2]?
A: Its selectivity index is > 10,000.

Q: And the “plasma and lung concentration at T1, fold above the MIC+huSA” value ([9]; 15 min)?
A: Its value is 11-20 fold.

Q: Which “Serum shift (fold increase)” value [7] does the source give for `O=[N+]([O-])c1cn2c(n1)OC[C@@H](OCc1ccc(OC(F)(F)F)cc1)C2` [Pretomanid, pretomanid] here?
A: Its value is 4 fold.

Q: What about the “Serum shift (fold increase)” value [14] of the same molecule?
A: Its value is 4 fold.

Q: With `COc1ncnc(Cn2cc(C(=O)NCCO)c3ncc(C)cc32)c1C` [TBA-7371] as the molecule, how does the Cmax ([4]; C3HeB/FeJ, mouse, in vivo, 100 mg/kg) read?
A: Its Cmax is about 8600 ng/g.

Q: And the “CFU reduction in lungs compared to untreated controls” value [15]?
A: Its value is “more than 2 log10 CFU”.

Q: What about the “MED99 (minimal effective dose giving 2-log reduction in lung bacterial load vs untreated)” value [6] of the same molecule?
A: Its value is 100 mg/kg.

Q: What about the “CFU reduction in lungs” value ([12]; 100 mg/kg QD) of the same molecule?
A: Its value is 1.5 log10 CFU.

Q: And the “dose at which maximal efficacy in spleens was achieved” value [8]?
A: The value was at least 200 mg/kg.

Q: And the “LME” value [8]?
A: The value was 100 mg/kg.

Q: And the “average lung CFU reduction” value ([8]; 8 weeks, 100 and 200 mg/kg BID)?
A: The value was 1.5 log10 CFU.

Q: And the “effect on lung CFU compared to pretreatment control and untreated controls” value ([8]; lungs)?
A: Its value is “not statistically significant”.

Q: What about the “lung bacterial load compared to the untreated control group” value [8, 17] of the same molecule?
A: Its value is “statistical significant reduction in the lung bacterial load”.

Q: And the “CFU reduction in spleen” value [8]?
A: Its value is “dose-dependent CFU reduction”.

Q: What about the MIC [13] of the same molecule?
A: Its MIC is 0.64 µg/mL (≈ 1.8 µM).
